Experimental findings from patent publication US9266876B2 (Actelion Pharmaceuticals Ltd., priority 2012, dated 2016) are described below.

The target in this test is human CXCR3A (Homo sapiens (Human), UniProt P49682). Description: FLIPR assay. The conditions noted are these: CHO-K1 cells expressing the human CXCR3A coupled to Galpha(16); CXCL10 agonist 20 nM; Fluo-4-AM fluorescence; mean values if determined several times. In kind it is cell-based. As for the experimental part: The bioactivity of compounds is tested in a fluorometric imaging plate reader (FLIPR: Molecular Devices) using engineered CHO-K1 cells expressing the human CXCR3A coupled to a G protein (Galpha(16)). Cells are plated the day prior to bioassay in F12 medium supplemented with 10% FBS and G418 and hygromycin antibiotics to maintain recombinant selection. At the day of bioassay, cells are washed and dye loaded for one hour with Fluo-4-AM (Invitrogen) in Hanks Balanced Salt Solution (Invitrogen), buffered with 20 mM Hepes at pH 7.4 and sodium bicarbonate (0.015%), containing 5 mM probenecid. […] Cells are washed free of excess dye and 60 microliter of wash buffer is added. Stock solutions of test compounds are made up at a concentration of 10 mM in DMSO, and serially diluted in dilution buffer to concentrations required for inhibition dose response curves. After a 10 minute incubation period at 37° C., 10 microliters of each compound dilution are transferred from a compound plate to the plate containing the recombinant cells in the FLIPR instrument according to the manufacturer's instructions. Following basal readings, 10 microliter CXCL10 agonist at a concentration of 20 nM (from Peprotech) is added, again using the FLIPR instrument. Changes in fluorescence are monitored before and after addition of the test compounds. Emission peak values above base level after CXCL10 addition are exported after base line subtraction. The program XLfit is used to fit the data to a single site dose response curve and to calculate IC50 values.
Chain of human CXCR3A (P49682 whole entry): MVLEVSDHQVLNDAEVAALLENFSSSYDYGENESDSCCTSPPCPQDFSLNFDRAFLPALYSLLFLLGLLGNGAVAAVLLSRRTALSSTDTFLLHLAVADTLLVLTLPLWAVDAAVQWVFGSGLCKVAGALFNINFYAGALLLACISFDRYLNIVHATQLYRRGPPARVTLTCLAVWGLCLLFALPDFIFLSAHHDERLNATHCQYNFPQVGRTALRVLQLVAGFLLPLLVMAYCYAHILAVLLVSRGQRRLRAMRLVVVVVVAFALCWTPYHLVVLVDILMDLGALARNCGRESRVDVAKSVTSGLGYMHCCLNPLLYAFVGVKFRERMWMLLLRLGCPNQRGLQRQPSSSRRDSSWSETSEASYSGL
Broadly, the IC50 is the concentration that inhibits the measured activity by half. A low value points to inhibition by little substance. In turn, `O=C(Cn1c(C(F)(F)F)nc2ccccc21)N1CCN(c2scnc2-c2nc3ccccc3[nH]2)CC1` [Example 64, 1-{4-[4-(1H-Benzoimidazol-2-yl)-thiazol-5-yl]-piperazin-1-yl}-2-(2-trifluoromethyl-benzoimidazol-1-yl)-ethanone] gave a concentration for half-maximal inhibition (IC50) of 111 nM.
The value for `Cc1cc2cccnc2n1CC(=O)N1CCN(c2scnc2-c2nc3ccccc3[nH]2)CC1` [Example 66, 1-{4-[4-(1H-Benzoimidazol-2-yl)-thiazol-5-yl]-piperazin-1-yl}-2-(2-methyl-pyrrolo[2,3-b]pyridin-1-yl)-ethanone] was 31 nM; that for `Cc1cn(CC(=O)N2CCN(c3scnc3-c3nc4ccccc4[nH]3)CC2)c2ncccc12` [Example 67, 1-{4-[4-(1H-Benzoimidazol-2-yl)-thiazol-5-yl]-piperazin-1-yl}-2-(3-methyl-pyrrolo[2,3-b]pyridin-1-yl)-ethanone] was 9 nM.
The value for `COc1ccc2ccn(CC(=O)N3CCN(c4scnc4-c4nc5ccccc5[nH]4)CC3)c2n1` [Example 69, 1-{4-[4-(1H-Benzoimidazol-2-yl)-thiazol-5-yl]-piperazin-1-yl}-2-(6-methoxy-pyrrolo[2,3-b]pyridin-1-yl)-ethanone] was 69 nM.
`Cc1ccc2ccn(CC(=O)N3CCN(c4scnc4-c4nc5ccccc5[nH]4)CC3)c2n1` [Example 70, 1-{4-[4-(1H-Benzoimidazol-2-yl)-thiazol-5-yl]-piperazin-1-yl}-2-(6-methyl-pyrrolo[2,3-b]pyridin-1-yl)-ethanone] returned a concentration for half-maximal inhibition (IC50) of 13 nM.
The value for `Cn1c(=O)n(CC(=O)N2CCN(c3scnc3-c3nc4ccc(CO)cc4[nH]3)CC2)c2ccccc21` [Example 76, 1-(2-{4-[4-(6-Hydroxymethyl-1H-benzoimidazol-2-yl)-thiazol-5-yl]-piperazin-1-yl}-2-oxo-ethyl)-3-methyl-1,3-dihydro-benzoimidazol-2-one] was 10 nM; that for `Cc1ccccc1-c1nc(-c2nc3ccccc3[nH]2)c(N2CCN(C(=O)Cn3cnc4cccnc43)[C@H](C)C2)s1` [Example 81, 1-{(R)-4-[4-(1H-Benzoimidazol-2-yl)-2-o-tolyl-thiazol-5-yl]-2-methyl-piperazin-1-yl}-2-imidazo[4,5-b]pyridin-3-yl-ethanone] was 23 nM; that for `COc1ccccc1-c1nc(-c2nc3ccccc3[nH]2)c(N2CCN(C(=O)Cn3cnc4cccnc43)[C@H](C)C2)s1` [Example 82, 1-{(R)-4-[4-(1H-Benzoimidazol-2-yl)-2-(2-methoxy-phenyl)-thiazol-5-yl]-2-methyl-piperazin-1-yl}-2-imidazo[4,5-b]pyridin-3-yl-ethanone] was 96 nM.
Compound `C[C@@H]1CN(c2scnc2-c2nc3cc(C(C)(C)C)ccc3[nH]2)CCN1C(=O)Cn1cnc2cccnc21` [Example 86, 1-{(R)-4-[4-(5-tert-Butyl-1H-benzoimidazol-2-yl)-thiazol-5-yl]-2-methyl-piperazin-1-yl}-2-imidazo[4,5-b]pyridin-3-yl-ethanone] registered an IC50 of 1 nM.
The same measure for `C[C@@H]1CN(c2scnc2-c2nc3cc(Cl)c(F)cc3[nH]2)CCN1C(=O)Cn1cnc2cccnc21` [Example 89, 1-{(R)-4-[4-(5-Chloro-6-fluoro-1H-benzoimidazol-2-yl)-thiazol-5-yl]-2-methyl-piperazin-1-yl}-2-imidazo[4,5-b]pyridin-3-yl-ethanone]: 1 nM; for `C[C@@H]1CN(c2scnc2-c2nc3c(F)c(F)ccc3[nH]2)CCN1C(=O)Cn1cnc2cccnc21` [Example 90, 1-{(R)-4-[4-(4,5-Difluoro-1H-benzoimidazol-2-yl)-thiazol-5-yl]-2-methyl-piperazin-1-yl}-2-imidazo[4,5-b]pyridin-3-yl-ethanone]: 2 nM.
The same measure for `C[C@@H]1CN(c2scnc2-c2nc3cc(Cl)c(C(F)(F)F)cc3[nH]2)CCN1C(=O)Cn1cnc2cccnc21` [Example 93, 1-{(R)-4-[4-(5-Chloro-6-trifluoromethyl-1H-benzoimidazol-2-yl)-thiazol-5-yl]-2-methyl-piperazin-1-yl}-2-imidazo[4,5-b]pyridin-3-yl-ethanone]: 1 nM.
The value for `Cc1c(Cl)ccc2[nH]c(-c3ncsc3N3CCN(C(=O)Cn4cnc5cccnc54)[C@H](C)C3)nc12` [Example 94, 1-{(R)-4-[4-(5-Chloro-4-methyl-1H-benzoimidazol-2-yl)-thiazol-5-yl]-2-methyl-piperazin-1-yl}-2-imidazo[4,5-b]pyridin-3-yl-ethanone] was 0.5 nM; that for `C[C@@H]1CN(c2scnc2-c2nc3c(C(F)(F)F)cccc3[nH]2)CCN1C(=O)Cn1cnc2cccnc21` [Example 95, 2-Imidazo[4,5-b]pyridin-3-yl-1-{(R)-2-methyl-4-[4-(4-trifluoromethyl-1H-benzoimidazol-2-yl)-thiazol-5-yl]-piperazin-1-yl}-ethanone] was 4 nM; that for `C[C@@H]1CN(c2scnc2-c2nc3c(F)cccc3[nH]2)CCN1C(=O)Cn1cnc2cccnc21` [Example 97, 1-{(R)-4-[4-(4-Fluoro-1H-benzoimidazol-2-yl)-thiazol-5-yl]-2-methyl-piperazin-1-yl}-2-imidazo[4,5-b]pyridin-3-yl-ethanone] was 2 nM.
Turning to `C[C@@H]1CN(c2scnc2-c2nc3ccccc3n2C)CCN1C(=O)Cn1cnc2cccnc21` [Example 98, 2-Imidazo[4,5-b]pyridin-3-yl-1-{(R)-2-methyl-4-[4-(1-methyl-1H-benzoimidazol-2-yl)-thiazol-5-yl]-piperazin-1-yl}-ethanone], the half-inhibitory concentration (IC50) is 9 nM.
As to `Cn1c(=O)n(CC(=O)N2CCN(c3scnc3-c3nc4cc(OCCO)ccc4[nH]3)CC2)c2ccccc21` [Example 101, 1-[2-(4-{4-[5-(2-Hydroxy-ethoxy)-1H-benzoimidazol-2-yl]thiazol-5-yl}-piperazin-1-yl)-2-oxo-ethyl]-3-methyl-1,3-dihydro-benzoimidazol-2-one], the half-inhibitory concentration (IC50) was 14 nM.
As for `COCCOc1ccc2[nH]c(-c3ncsc3N3CCN(C(=O)Cn4c(=O)n(C)c5ccccc54)CC3)nc2c1` [Example 102, 1-[2-(4-{4-[5-(2-Methoxy-ethoxy)-1H-benzoimidazol-2-yl]-thiazol-5-yl}-piperazin-1-yl)-2-oxo-ethyl]-3-methyl-1,3-dihydro-benzoimidazol-2-one], the IC50 turned out to be 14 nM.
Compound `O=C(CN1CCCc2ccccc21)N1CCN(c2scnc2-c2nc3ccccc3[nH]2)CC1` [Example 105, 1-{4-[4-(1H-Benzoimidazol-2-yl)-thiazol-5-yl]-piperazin-1-yl}-2-(3,4-dihydro-2H-quinolin-1-yl)-ethanone] registered an IC50 of 89 nM. Against the preceding compound, the IC50 is about 6.4-fold higher.
Compound `O=C(CN1CCOc2ccccc21)N1CCN(c2scnc2-c2nc3ccccc3[nH]2)CC1` [Example 106, 1-{4-[4-(1H-Benzoimidazol-2-yl)-thiazol-5-yl]-piperazin-1-yl}-2-(2,3-dihydro-benzo[1,4]oxazin-4-yl)-ethanone] showed a concentration for half-maximal inhibition (IC50) of 99 nM.
The value for `O=C1CCN(CC(=O)N2CCN(c3scnc3-c3nc4ccccc4[nH]3)CC2)c2ccccc21` [Example 107, 1-(2-{4-[4-(1H-Benzoimidazol-2-yl)-thiazol-5-yl]-piperazin-1-yl}-2-oxo-ethyl)-2,3-dihydro-1H-quinolin-4-one] was 78 nM.
The same measure for `O=C(Cn1ccc2cccc(F)c21)N1CCN(c2scnc2-c2nc3ccccc3[nH]2)CC1` [Example 108, 1-{4-[4-(1H-Benzoimidazol-2-yl)-thiazol-5-yl]-piperazin-1-yl}-2-(7-fluoro-indol-1-yl)-ethanone]: 4 nM.
The same measure for `O=C(Cc1cccnc1)N1CCN(c2scnc2-c2nc3ccccc3[nH]2)CC1` [Example 110, 1-{4-[4-(1H-Benzoimidazol-2-yl)-thiazol-5-yl]-piperazin-1-yl}-2-pyridin-3-yl-ethanone]: 487 nM; for `COc1ccc(CC(=O)N2CCN(c3scnc3-c3nc4ccccc4[nH]3)CC2)c(F)c1` [Example 111, 1-{4-[4-(1H-Benzoimidazol-2-yl)-thiazol-5-yl]-piperazin-1-yl}-2-(2-fluoro-4-methoxy-phenyl)-ethanone]: 280 nM.
On to `Cn1c(=O)n(CC(=O)N2CCN(c3scnc3-c3nc4c(O)cccc4[nH]3)CC2)c2ccccc21` [Example 112, 1-(2-{4-[4-(4-Hydroxy-1H-benzoimidazol-2-yl)-thiazol-5-yl]-piperazin-1-yl}-2-oxo-ethyl)-3-methyl-1,3-dihydro-benzoimidazol-2-one], for which the concentration for half-maximal inhibition (IC50) stood at 10 nM.
The value for `C[C@@H]1CN(c2scnc2-c2nc3ccccc3[nH]2)CCN1C(=O)Cc1ccc2ccccc2c1` [Example 117, 1-{(R)-4-[4-(1H-Benzoimidazol-2-yl)-thiazol-5-yl]-2-methyl-piperazin-1-yl}-2-naphthalen-2-yl-ethanone] was 75 nM.
The same measure for `C[C@@H]1CN(c2scnc2-c2nc3ccccc3[nH]2)CCN1C(=O)Cc1ccc2cccnc2c1` [Example 120, 1-{(R)-4-[4-(1H-Benzoimidazol-2-yl)-thiazol-5-yl]-2-methyl-piperazin-1-yl}-2-quinolin-7-yl-ethanone]: 16 nM; for `C[C@@H]1CN(c2scnc2-c2nc3ccccc3[nH]2)CCN1C(=O)Cc1ccc2nccnc2c1` [Example 121, 1-{(R)-4-[4-(1H-Benzoimidazol-2-yl)-thiazol-5-yl]-2-methyl-piperazin-1-yl}-2-quinoxalin-6-yl-ethanone]: 42 nM.
